The results in this text go back to patent US3983105A, “Penicillins” (Bayer Aktiengesellschaft, priority 1971, dated 1976).

Holding throughout (type): cell-based
For one assay, the system named is Pseudomonas aeruginosa. Kind of assay: MIC, test tube serial dilution, Pseudomonas aeruginosa. The conditions noted are these: Table 3.
In a further assay the test system is Proteus morganii. Kind of assay: MIC, test tube serial dilution, Proteus morganii. The conditions noted are these: Table 3; strain 932.
In another assay the test system is Proteus vulgaris. Kind of assay: MIC, test tube serial dilution, Proteus vulgaris.
A further assay concerns Streptococcus faecalis. Kind of assay: MIC, test tube serial dilution, Streptococcus faecalis. The following applies: Table 3; ATCC 9790.
Another assay has as its system Klebsiella-Aerobacter. Kind of assay: MIC, test tube serial dilution, Klebsiella-Aerobacter. The conditions noted are these: Table 3.
In the next assay the test system is Escherichia coli. Nature of the assay: MIC, test tube serial dilution, Escherichia coli. The following applies: Table 3.
The next assay deals with Staphylococcus aureus. Kind of assay: MIC, test tube serial dilution, Staphylococcus aureus. The conditions noted are these: Table 3.

Regarding `CC1(C)S[C@@H]2[C@H](NC(=O)C(NC(=O)N3CCN(S(C)(=O)=O)C3=O)c3c(Cl)cccc3Cl)C(=O)N2[C@H]1C(=O)O` (stereo partly drawn) [Penicillin No. 5 (Table 3), Sodium D,L-α-[(3-methylsulphonyl-imidazolidin-2-on-1-yl)-carbonylamino]-2,6-dichloro-benzylpenicillin], the MIC is listed as at least 256 U/ml against Pseudomonas aeruginosa (strain F 41); at least 256 U/ml with Pseudomonas aeruginosa (strain Walter); 32 U/ml against Proteus morganii; 256 U/ml in the assay on Proteus vulgaris (Table 3, strain 1017); 256 U/ml against Streptococcus faecalis; at least 256 U/ml in the assay on Klebsiella-Aerobacter (strain 63). The MIC is at least 256 U/ml against Klebsiella-Aerobacter (strain K 10); 256 U/ml against Escherichia coli (strain 14); 256 U/ml with Escherichia coli (strain 183/58); at least 256 U/ml against Escherichia coli (strain A 261); at least 256 U/ml with Escherichia coli (strain C 165); 4 U/ml with Staphylococcus aureus (strain 133). Also, the MIC against Staphylococcus aureus (strain 1756E) is at least 256 U/ml.

Take `CC(=O)N1CCN(C(=O)N[C@H](C(=O)N[C@@H]2C(=O)N3[C@@H]2SC(C)(C)[C@@H]3C(=O)O)c2ccccc2)C1=O` [Penicillin No. 6 (Table 3), Sodium L(+)-α-[(3-acetyl-imidazolidin-2-on-1-yl)-carbonylamino]-benzylpenicillin]: the MIC against Pseudomonas aeruginosa (strain F 41) is 256 U/ml; with Pseudomonas aeruginosa (strain Walter) it was 128 U/ml; with Proteus morganii, 64 U/ml; in the assay with Proteus vulgaris (Table 3, strain 1017), 32 U/ml; in the assay on Streptococcus faecalis it was 128 U/ml; against Klebsiella-Aerobacter (strain 63), 256 U/ml. Further, the MIC with Klebsiella-Aerobacter (strain K 10) is on record as 128 U/ml; against Escherichia coli (strain 14), 8 U/ml; against Escherichia coli (strain 183/58), 16 U/ml; in the assay on Escherichia coli (strain A 261), over 512 U/ml; against Escherichia coli (strain C 165), 32 U/ml; with Staphylococcus aureus (strain 133), 2 U/ml. The MIC in the assay with Staphylococcus aureus (strain 1756E) turned out to be 128 U/ml.

For the compound `CC(=O)N1CCN(C(=O)NC(C(=O)N[C@@H]2C(=O)N3[C@@H]2SC(C)(C)[C@@H]3C(=O)O)c2ccc(Cl)cc2)C1=O` (stereo partly drawn) [Penicillin No. 7 (Table 3), Sodium D,L-α-[(3-acetylimidazolidin-2-on-1-yl)-carbonyl-amino]-4-chlorobenzylpenicillin], the MIC against Pseudomonas aeruginosa (strain F 41) came out at 128 U/ml; against Pseudomonas aeruginosa (strain Walter) it was 64 U/ml; with Proteus morganii, 16 U/ml; against Proteus vulgaris (Table 3, strain 1017), 32 U/ml; against Streptococcus faecalis it was 64 U/ml; with Klebsiella-Aerobacter (strain 63), 128 U/ml. Also, the MIC against Klebsiella-Aerobacter (strain K 10) is listed as 32 U/ml; against Escherichia coli (strain 14) it was 4 U/ml; in the assay with Escherichia coli (strain 183/58), 8 U/ml; against Escherichia coli (strain A 261) it was 512 U/ml; with Escherichia coli (strain C 165) it was 16 U/ml; against Staphylococcus aureus (strain 133), under 1 U/ml. Further, the MIC against Staphylococcus aureus (strain 1756E) amounted to 64 U/ml.

Take `CC(=O)N1CCN(C(=O)NC(C(=O)N[C@@H]2C(=O)N3[C@@H]2SC(C)(C)[C@@H]3C(=O)O)c2ccc(C)cc2)C1=O` (stereo partly drawn) [Penicillin No. 8 (Table 3), Sodium D,L-α-[(3-acetyl-imidazolidin-2-on1-yl)-carbonylamino]-4-methyl-benzylpenicillin]: the MIC in the assay with Pseudomonas aeruginosa (strain F 41) came out at 128 U/ml; against Pseudomonas aeruginosa (strain Walter), 64 U/ml; in the assay with Proteus morganii, 32 U/ml; in the assay on Proteus vulgaris (unit assumed), 16 µg/mL; against Streptococcus faecalis it was 64 U/ml; against Klebsiella-Aerobacter (strain 63), 128 U/ml. Moreover, the MIC is 32 U/ml in the assay on Klebsiella-Aerobacter (strain K 10); 2 U/ml with Escherichia coli (strain 14); 8 U/ml in the assay with Escherichia coli (strain 183/58); 512 U/ml against Escherichia coli (strain A 261); 8 U/ml against Escherichia coli (strain C 165); ~ 64 U/ml against Staphylococcus aureus (strain 1756E).

As for `CC(=O)N1CCN(C(=O)NC(C(=O)N[C@@H]2C(=O)N3[C@@H]2SC(C)(C)[C@@H]3C(=O)O)c2cccs2)C1=O` (stereo partly shown) [Penicillin No. 9 (Table 3)], the MIC with Pseudomonas aeruginosa (strain F 41) is on record as 64 U/ml; against Pseudomonas aeruginosa (strain Walter) it was 64 U/ml; against Proteus morganii it was 8 U/ml; with Proteus vulgaris (Table 3, strain 1017) it was 8 U/ml; against Streptococcus faecalis, 64 U/ml; with Klebsiella-Aerobacter (strain 63), 128 U/ml. In addition, the MIC is reported as 32 U/ml in the assay with Klebsiella-Aerobacter (strain K 10); 2 U/ml against Escherichia coli (strain 14); 8 U/ml with Escherichia coli (strain 183/58); 512 U/ml against Escherichia coli (strain A 261); 8 U/ml against Escherichia coli (strain C 165); 2 U/ml against Staphylococcus aureus (strain 133). The same compound had an MIC in the assay on Staphylococcus aureus (strain 1756E) of 64 U/ml.

Regarding `CC(=O)N1CCN(C(=O)NC(C(=O)N[C@@H]2C(=O)N3[C@@H]2SC(C)(C)[C@@H]3C(=O)O)c2c(Cl)cccc2Cl)C1=O` (stereo partly drawn) [Penicillin No. 10 (Table 3), Sodium D,L-α-[(3-acetyl-imidazolidin-2-on-1-yl)carbonylamino]-2,6-dichloro-benzylpenicillin], the MIC is given as over 512 U/ml with Pseudomonas aeruginosa (strain F 41); over 512 U/ml in the assay on Pseudomonas aeruginosa (strain Walter); 256 U/ml in the assay on Proteus morganii; 256 U/ml in the assay with Proteus vulgaris (Table 3, strain 1017); over 512 U/ml against Streptococcus faecalis; over 512 U/ml with Klebsiella-Aerobacter (strain 63). For the same compound, the MIC in the assay with Klebsiella-Aerobacter (strain K 10) is over 512 U/ml; with Escherichia coli (strain 14) it was 128 U/ml; against Escherichia coli (strain 183/58), 256 U/ml; against Escherichia coli (strain A 261) it was over 512 U/ml; against Escherichia coli (strain C 165) it was 512 U/ml; against Staphylococcus aureus (strain 133), 16 U/ml. In the assay on Staphylococcus aureus (strain 1756E), this compound returned an MIC of 512 U/ml.

`CCS(=O)(=O)N1CCN(C(=O)N[C@@H](C(=O)N[C@@H]2C(=O)N3[C@@H]2SC(C)(C)[C@@H]3C(=O)O)c2ccccc2)C1=O` [Penicillin No. 11 (Table 3), Sodium D(-)-α-[(3-ethylsulphonyl-imidazolidin-2-on-1-yl)-carbonylamino]-benzylpenicillin]: the MIC is reported as 64 U/ml with Pseudomonas aeruginosa (strain F 41); 64 U/ml with Pseudomonas aeruginosa (strain Walter); 16 U/ml with Proteus morganii; 4 U/ml against Proteus vulgaris (Table 3, strain 1017); 64 U/ml with Streptococcus faecalis; 16 U/ml against Klebsiella-Aerobacter (strain 63). Further, the MIC with Klebsiella-Aerobacter (strain K 10) is listed as 16 U/ml; in the assay on Escherichia coli (strain 14) it was under 1 U/ml; in the assay on Escherichia coli (strain 183/58) it was 2 U/ml; with Escherichia coli (strain A 261), 512 U/ml; against Escherichia coli (strain C 165), 4 U/ml; against Staphylococcus aureus (strain 133) it was 2 U/ml. The same compound showed an MIC against Staphylococcus aureus (strain 1756E) of 128 U/ml.

Consider `CCS(=O)(=O)N1CCN(C(=O)NC(C(=O)N[C@@H]2C(=O)N3[C@@H]2SC(C)(C)[C@@H]3C(=O)O)c2ccc(Cl)cc2)C1=O` (stereo partly drawn) [Penicillin No. 13 (Table 3), Sodium α-[(3-ethylsulphonyl-imidazolidin-2-on-1-yl)-carbonylamino]-p-chlorobenzylpenicillin], for which the MIC was determined as 128 U/ml with Pseudomonas aeruginosa (strain F 41); 128 U/ml in the assay on Pseudomonas aeruginosa (strain Walter); 128 U/ml against Proteus morganii; 16 U/ml against Proteus vulgaris (Table 3, strain 1017); 128 U/ml against Streptococcus faecalis; 64 U/ml against Klebsiella-Aerobacter (strain 63). Moreover, the MIC in the assay on Klebsiella-Aerobacter (strain K 10) is 32 U/ml; against Escherichia coli (strain 14) it was 4 U/ml; against Escherichia coli (strain 183/58) it was 4 U/ml; in the assay with Escherichia coli (strain A 261) it was over 256 U/ml; in the assay on Escherichia coli (strain C 165), 8 U/ml; in the assay with Staphylococcus aureus (strain 133), 4 U/ml. For the same compound, the MIC in the assay on Staphylococcus aureus (strain 1756E) was 256 U/ml.
